Assay results published in patent US20120232107A1, “NON-PEPTIDE ANTAGONISTS OF GASTRIN RELEASING PEPTIDE” (The Government of the United States of America as …, priority 2003, published 2012).
Entries after “also recorded” stand apart in the source; their conditions may differ. Where two headings read alike, the source gives them in different places. Ends that are not written are not given here.

Legend:
[1] = target: T1, AM (Homo sapiens, UniProt P35318); experiment: cAMP analysis for AM in Rat2 cells; assay type: cell-based, rat; conditions: for variation of intracellular cAMP levels: Rat2 cells; for Action on second messengers: peptide AM, cAMP induced by 100 nM AM in Rat2 cells; for Response to second messengers: peptide target AM
T1 construct: AM is a 52 amino acid peptide; purchased Peninsula (S. Carlos, Calif.); host or cells: synthetic peptide
T1 sequence (P35318 95-146): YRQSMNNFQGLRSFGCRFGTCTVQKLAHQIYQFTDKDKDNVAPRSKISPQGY
Protocol: This cell line was obtained from the American Tissue Culture Collection (ATCC, Manassas, Va.) and maintained in RPMI-1640 supplemented with 10% fetal bovine serum (FBS, Invitrogen, Carlsbad, Calif.). Cells were seeded in 24-well plates at 2×10^4 cells/well and incubated at 37° C. in 5% CO2 until they reached 80% confluency. Before the assay, cells were incubated for 15 min in TIS medium (RPMI-1640 plus 10 μg/ml transferrin, 10 μg/ml insulin, and 50 nM sodium selenite) containing 1% BSA, 1 mg/ml bacitracin, and 100 μM isobutylmethylxanthine. Peptides and small molecules were applied in the same medium for 5 min at the indicated concentrations in a volume of 250 μl. The reaction was terminated by adding an equal volume of ice-cold ethanol. cAMP contents were measured using the Biotrac cAMP radioimmunoassay (Amersham Biosciences, Piscataway, N.J.), as described (Pio et al. (2001) J. Biol. Chem. 276, 12292-12300).

[2] = target: T1, AM; experiment: Surface plasmon resonance binding to immobilized AM; conditions: for Binding to AM kd: kinetic dissociation constant; for kon: read-out: Binding to AM ka; for Binding to AM KA: thermodynamic association constant
Protocol: Characterization of the binding between AM and the small molecules was performed immobilizing 3 μg of AM on a CM5 sensor chip by N-hydroxysuccinimide activation, followed by covalent amino coupling of the peptide to the surface, using BIAcore 3000 (Piscataway, N.J.). The remaining free surface was blocked with 1 mM ethanolamine and the matrix washed with 0.5 M NaCl solution and then re-equilibrated with binding buffer (1:200 DMSO in PBS). Eight different dilutions of each small molecule were prepared in binding buffer with concentrations ranging from 0 to 10 μM and injected from low to high concentration. Each injection was followed by a matrix regeneration step. Mass transfer control experiments were performed by injecting the same concentration of each small molecule at different flow rates (5, 15, and 75 μl/min). The data were then fitted to several models for a kinetic analysis and the binding constants calculated. The best fittings were obtained with a simple 1:1 Langmuir model.

[3] = system: normotensive Lewis/ssncr rats; experiment: Measurement of blood pressure in vivo, normotensive Lewis/ssncr rats; parameters: species or system rat; conditions: for Biological activity (blood pressure): AM antagonists, 20 nmols/Kg iv; for Biological activity: negative modulators of AM
Protocol: (§1) AM is a potent and long-lasting vasodilator Therefore it was expected that AM antagonists would elevate blood pressure and AM superagonists would decrease it further. In consequence, suspected antagonists were analyzed in normotensive rats (10-week-old Lewis/ssncr males, SAIC, Frederick, Md.) and suspected superagonists in hypertensive animals (10-week-old SHR males, Taconic Farms, Germantown, N.Y.).
(§2) Animals were anaesthetized with 3% halothane, intubated, and maintained with 1% halothane in 70% nitrous oxide and 30% oxygen (VMS Anesthesia Machine, Matrx, Medical Inc., Orchard Park, N.Y.) at 82 strokes/min. Rectal temperature was monitored through the experiment. A PE50 catheter was placed on the right femoral artery and arterial blood pressure was recorded through a P23XL transducer (Grass Instruments, Quincy, Mass.). Peptides and small molecules were injected into the right femoral vein through another catheter. All procedures were performed under a protocol approved by the National Institutes of Health.

[4] = target: T2, GRP (Homo sapiens, UniProt P07492); experiment: IP3 analysis for GRP in H-1299 cells; assay type: cell-based; conditions: for Action on second messengers: peptide GRP, IP3 or Ca2+ levels induced by GRP in H1299 cells
T2 construct: GRP is a 27 amino acid peptide; purchased Peninsula (S. Carlos, Calif.); host or cells: synthetic peptide
T2 sequence (P07492 24-50 limits assumed): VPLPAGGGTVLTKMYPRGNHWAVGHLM
Protocol: This cell line was obtained from ATCC and cultured as the other cell lines. The signal transduction pathway for GRP includes elevation of intracellular levels of IP3 and Ca^2+ and these were investigated as previously shown (Ryan et al. (1998) J. Biol. Chem., 273, 13613-13624). Briefly, to quantify IP3, contents cells were subcultured into 24-well plates (5×10^4 cells/well). After a 24 h incubation period at 37° C., the cells were incubated with 3 μCi/ml myo-[^3H]inositol in growth medium supplemented with 2% FBS for an additional 24 h. Incubation volumes were 500 μl of assay buffer/well containing 135 mM sodium chloride, 20 mM HEPES (pH 7.4), 2 mM calcium chloride, 1.2 mM magnesium sulfate, 1 mM EGTA, 20 mM lithium chloride, 11.1 mM glucose, and 0.05% BSA (v/v) with or without any of the molecules studied at 37° C. for 30 min. Experiments were terminated with 1 ml of ice-cold hydrochloric acid/methanol (0.1%, v/v). [^3H]IP3 was eluted off Dowex AG-1-X8 anion exchange columns with 2 ml of 1 mM ammonium formate and 100 mM formic acid. Each of the eluates was collected and mixed with 10 ml of scintillation mixture (BioSafe, Research Products International Corp, Mount Prospect, Ill.), and the radioactivity was measured in a LS 3801 β counter (Beckman, Somerset, N.J.).

[5] = target: T2, GRP; experiment: Ca2+ analysis for GRP in H-1299 cells; assay type: cell-based
Protocol: After washing two times with TIS, 2 ml of cell suspension were placed in a Delta PTI Scan 1 spectrofluorimeter (Photon Technology International, South Brunswick, N.J.) equipped with a stir bar and water bath (37° C.). Fluorescence was measured at dual excitation wavelengths of 340 nm and 380 nm using an emission wavelength of 510 nm.

[6] = system: hypertensive SHR rats; experiment: Measurement of blood pressure in vivo, hypertensive SHR rats; parameters: species or system rat; conditions: for decrease in blood pressure from basal levels: 20 nmols/Kg intravenous; for decrease in blood pressure from basal levels / Biological activity (blood pressure): hypertensive rats; for Biological activity (blood pressure): AM superagonists, 20 nmols/Kg iv
Protocol: as §1, §2

[7] = system: Bovine retinal microvascular endothelial cells; experiment: Cord formation assay in Matrigel; assay type: cell-based; conditions: 5 nM GRP alone
Protocol: Formation of tube-like structures was performed as described in Kubota et al. (1988) J. Cell Biol. 107, 1589-1598; Nam et al. (2003) Phytother. Res. 17, 107-111; and Macpherson et al. (2003) Mol Cancer Ther 2, 845-54. Briefly, a thin layer of Matrigel (Collaborative Biomedical Products, Bedford, Mass.) was allowed to polymerize at the bottom of 24-well plates. […] After an overnight incubation at 37° C., the tubular structures were photographed (3 pictures per well at 10×) and the number of knots per photographic field were counted as a measure of lattice complexity.

[8] = system: GRP-induced angiogenesis; experiment: Directed in vivo angiogenesis assay (DIVAA); parameters: species or system mice; conditions: 1 nM GRP
Protocol: Analysis and quantitation of angiogenesis was done using DIVAA as previously described (Martinez et al. (2002) J Natl Cancer Inst 94, 1226-37). Briefly, 10 mm long surgical-grade silicone tubes with only one end open (angioreactors) were filled with 20 μl of matrigel alone or mixed with GRP and the small molecules at the indicated concentrations. After the matrigel solidified, the angioreactors were implanted into the dorsal flanks of athymic nude mice (NCI colony). After 11 days, the mice were injected iv with 25 mg/ml FITC-dextran (100 μl/mouse, Sigma) 20 min before removing angioreactors. Quantitation of neovascularization in the angioreactors was determined as the amount of fluorescence trapped in the implants and was measured in a HP Spectrophotometer (Perkin Elmer).

[9] = target: T1, AM; experiment: Primary screening: interference with binding of AM to its blocking monoclonal antibody; conditions: 1 μM compound
Protocol: Human synthetic AM was solid-phased into PVC 96-well plates (Fisher Scientific, Pittsburgh, Pa.) by incubating 50 μl of AM (at 1 nmols/μl) per well for 1 h. To solid-phase […] into the plates, these were previously treated with glutaraldehyde as described (Kasprzyk et al. (1988) Anal. Biochem. 174, 224-234). After discarding the coating solution, the plates were blocked with 200 μl per well of 1% bovine serum albumin (BSA) in phosphate buffer saline (PBS). After 1 h, this solution was aspirated off and 50 μl containing 1 μM of one of the compounds of the library in PBS was added per well. Immediately after, 50 μl of labeled antibody (at 2.4 μg/ml) were added on each well and the solution was allowed to react for 1 h. Following 3 thorough washes with 1% BSA in PBS to remove the unbound antibodies, peroxidase activity was developed using o-phenylenediamine dihydrochloride (Sigma) as a substrate. The reaction product was quantified with a plate reader (Spectra Rainbow, Tecan, Austria) at 450 nm. Each plate contained several internal controls including wells without any coating that are used to calculate non-specific binding; wells where no potential antagonists were added, which provided maximum binding; and wells where the unlabeled antibody (at 1.2 μg/ml) substituted the small molecule, as a positive inhibition control (FIG. 1B). […]

[10] = unit inferred, read-out: calculated KD

OC(COc1ccccc1)CN1CCCCC1 (stereo not drawn) [compound 89435]
variation of intracellular cAMP levels ([1]; in the presence of 100 nM AM): most active antagonists
Action on second messengers [1]: Antagonists
Response to second messengers [1]: Neg. modul.
Binding to AM kd [2]: 0.000871 s⁻¹
kon [2]: 1020 M⁻¹ s⁻¹
Binding to AM KA [2]: 1.18e+06 M⁻¹
Kd ([2]; thermodynamic dissociation constant, read-out: Binding to AM KD): 851 nM
Biological activity (blood pressure) ([3]; normotensive rats): Elevates blood
Biological activity [3]: Vasodilator

O=NN(Cc1ccc(Cl)cc1)C(C(=O)O)c1ccccc1 (stereo not drawn) [compound 372874]
Action on second messengers [4]: Superagonist

Oc1c[n+](CC[n+]2cc(O)on2)no1 [compound 54671]
Ca2+ response elicited by 1 nM GRP ([5]; H1299 cells pre-exposed to compound (1 min)): dramatically reduces
Binding to AM ([2]; immobilized AM): not to bind; also recorded: No binding
Action on second messengers [4]: Antagonists
Response to second messengers ([4]; peptide target GRP): Neg. modul.

OCCCN=C1CCCCC1 [compound 128911]
Action on second messengers [1]: Superagonists
Response to second messengers [1]: Posit. modul.
Binding to AM kd [2]: 0.000892 s⁻¹
kon [2]: 304 M⁻¹ s⁻¹
Binding to AM KA [2]: 341000 M⁻¹
Kd [2, 10]: 2930 nM
decrease in blood pressure from basal levels [6]: 62±21 mm Hg
Biological activity (blood pressure) [6]: Reduces blood
Biological activity ([6]; positive modulator of AM): Vasopressor

CCN(CC)CCC(O)(Cc1ccccc1)C(C(=O)O)c1ccccc1 (stereo not drawn) [compound 50161]
variation of intracellular cAMP levels ([1]; in the presence of 100 nM AM): most active antagonists
Action on second messengers [1]: Antagonists

Nc1nc(=O)c2[nH]cnc2n1O [compound 145425]
Action on second messengers [1]: Superagonists
decrease in blood pressure from basal levels [6]: 55±24 mm Hg
Biological activity (blood pressure) [6]: Reduces blood

Nn1c(CCCCCCCCc2nnc(COc3ccc4ccccc4c3O)n2N)nnc1COc1ccc2ccccc2c1O [compound 697162]
Action on second messengers [1]: Superagonists

GRP: Synthetic human gastrin releasing peptide, 27 amino acid peptide hormone (VPLPAGGGTVLTKMYPRGNHWAVGHLM; ends and bridges not checked; UniProt P07492 24-50, looked up) [reference compound]
intracellular Ca2+ ([5]; 1 nM GRP alone, H1299 cells): marked elevation
number of knots per photographic field [7]: 37±5
angiogenic potential in vivo [8]: exhibits angiogenic potential in vivo

CCN1CCC(O)(C(C(=O)O)c2ccccc2)CC1 (stereo not drawn) [compound 16311]
variation of intracellular cAMP levels ([1]; in the presence of 100 nM AM): most active antagonists
Action on second messengers [1]: Antagonists
Response to second messengers [1]: Neg. modul.
Binding to AM kd [2]: 1.02e-05 s⁻¹
kon [2]: 1550 M⁻¹ s⁻¹
Binding to AM KA [2]: 1.52e+08 M⁻¹
Kd [2, 10]: 6.56 nM
elevation in blood pressure, difference from basal levels ([3]; 20 nmols/Kg intravenous, normotensive rats): 127±47 mm Hg
Biological activity (blood pressure) ([3]; normotensive rats): Elevates blood
Biological activity [3]: Vasodilator

c1ccc(Nn2c(CCCCCCCCc3nnc(COc4ccccc4)n3Nc3ccccc3)nnc2COc2ccccc2)cc1 [compound 697165]
dose dependence of cAMP elevation ([1]; in the presence of 100 nM AM): dose-dependent elevation of cAMP
variation of intracellular cAMP levels ([1]; in the presence of 100 nM AM): superagonist
Action on second messengers [1]: Superagonists
competition with labeled blocking monoclonal antibody for AM-coated plate [9]: successful competitors

CS(=O)(=O)OC1CN2CCC1CC2 (stereo not drawn) [compound 79422]
variation of intracellular cAMP levels ([1]; in the presence of 100 nM AM): antagonist
Action on second messengers [1]: Antagonists
